In data set [1] the target is T1, CDK1/CyclinB1 (Homo sapiens, UniProt P06493).
T1 construct: Wild-type, full length CDK1 in complex with wildtype, full length CyclinB1: Carna Cat #04-102; purchased Carna 04-102
The data set can be described thus: CDK1/CyclinB1 ChEF Assay (Table A).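 Further: Ki reported in nM.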 Type of data set: biochemical. The note with it: read-out: CDK1/CCNB1 ChEF Ki: Average Ki. As for the experimental part:
500 nL of 50× compound in 100% DMSO is added to a 384-well low volume, white assay plate. 19.5 μL of 1.3×CDK1/CyclinB1 (Wild-type, full length CDK1 in complex with wildtype, full length CyclinB1: Carna Cat #04-102) diluted in assay buffer (50 mM Hepes, 0.01% Brij-35, 10 mM MgCl2, 0.5 mM EGTA, 1% Glycerol, and 1.2 mM DTT) is added to the plates on top of the compound and pre-incubated for 30 minutes at room temperature. Following the incubation, 5 μL of 5×Sox-chromophore (CSox) labeled peptide substrate (AQT0297, AssayQuant) & ATP diluted in assay buffer is added to the plate to initiate the reaction. The assay is incubated at room temperature for 30 min after initiation. The CSox peptide substrate is phosphorylated by CDK1/B1 upon ATP hydrolysis.
(§1) The fluorescent intensity measurement of the assay plate for all assays described above is read on a microplate reader once the assay is initiated and again at the completion of the assay. Phosphorylation of the CSox-based peptide substrate sensor results in an immediate increase in fluorescence. These raw fluorescence intensity values are normalized to calculate percent inhibition, which are fit to a four-parameter logistic curve and IC50 values are calculated. IC50 values are converted to Ki using substrate, KM^app values, and the Cheng-Prusoff equation.

The target of data set [2] is T2, CDK9/CyclinT1 (Homo sapiens, UniProt P50750). The data set can be described thus: CDK9/CyclinT1 Mobility Shift Assay (Caliper, Table B). More on the design: Wild-type, full length CDK9 in complex with wildtype, CyclinT1 (1-259): Biortus Cat #BP480/792/691; purchased Biortus BP480/792/691. Type of data set: biochemical. The note with it: read-out: CDK9/Cyclin T1 Caliper Ki: Average Ki. As for the experimental part:
10 nL of 2000× compound in 100% DMSO is added to a 384-well polypropylene assay plate. 15 μL of 1.3×CDK9/T1 and 1.3× fluorescent substrate (Wild-type, full length CDK9 in complex with wildtype, CyclinT1 (1-259): Biortus Cat #BP480/792/691 and FL-Peptide 34: PerkinElmer Cat #760643) diluted in kinase buffer (50 mM Hepes, 0.01% Brij-35, 10 mM MgCl2, 1 mM EGTA, 0.05% BSA, and 2 mM DTT) is added to the plates on top of the compound, mixed, and pre-incubated for 30 minutes at room temperature. The fluorescently labeled peptide substrate is phosphorylated by CDK9/T1 upon ATP hydrolysis. Following the incubation, 5 μL of 4×ATP diluted in kinase buffer is added to the plate to initiate the reaction. Following the 30-minute incubation, the reaction is stopped by adding 75 μL of stopping buffer containing 0.5 M EDTA.
(§2) The assay plate is then read on a Lab Chip EZ Reader which separates the fluorescently labeled substrate and product peptides through a mobility difference. The phosphorylation of the substrate imparts a negative charge, which allows differences in separation as both are pulled through the microfluidic chip. The ratio of substrate and product values are used to generate percent conversion. These raw percent conversion values are normalized to calculate percent inhibition, which are fit to a four-parameter logistic curve and IC50 values are calculated. IC50 values are converted to Ki using substrate, Kmapp values, and the Cheng-Prusoff equation.
Target sequence in this assay (P50750 whole entry): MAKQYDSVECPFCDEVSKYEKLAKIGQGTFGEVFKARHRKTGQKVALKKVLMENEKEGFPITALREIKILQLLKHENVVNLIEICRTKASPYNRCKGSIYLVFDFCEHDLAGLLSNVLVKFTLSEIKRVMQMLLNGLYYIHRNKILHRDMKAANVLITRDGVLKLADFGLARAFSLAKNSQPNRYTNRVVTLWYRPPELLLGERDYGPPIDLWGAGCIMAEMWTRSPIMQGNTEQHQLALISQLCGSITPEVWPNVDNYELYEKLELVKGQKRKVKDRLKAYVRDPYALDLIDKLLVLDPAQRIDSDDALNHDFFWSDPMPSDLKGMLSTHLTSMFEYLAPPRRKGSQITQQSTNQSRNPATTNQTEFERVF
Target sequence in this assay (O60563 1-259 partner limits assumed): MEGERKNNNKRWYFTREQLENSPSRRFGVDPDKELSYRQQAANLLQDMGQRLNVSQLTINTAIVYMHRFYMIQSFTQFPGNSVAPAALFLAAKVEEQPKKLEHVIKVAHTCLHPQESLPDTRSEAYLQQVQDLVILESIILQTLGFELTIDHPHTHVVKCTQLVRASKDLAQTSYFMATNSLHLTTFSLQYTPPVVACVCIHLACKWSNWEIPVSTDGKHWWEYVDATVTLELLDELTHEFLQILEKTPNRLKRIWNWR

Data set [3] has as its target T3, CDK2/CyclinA2 (Homo sapiens, UniProt P24941).
T3 construct: Wild-type, full length CDK2 in complex with wildtype, full length CyclinA2: Carna Cat #04-103; purchased Carna 04-103
The data set can be described thus: CDK2/CyclinA2 ChEF Assay (Table A). Format: biochemical. As for the experimental part:
500 nL of 50× compound in 100% DMSO is added to a 384-well low volume, white assay plate. 19.5 μL of 1.3×CDK2/CyclinA2 (Wild-type, full length CDK2 in complex with wildtype, full length CyclinA2: Carna Cat #04-103 diluted in assay buffer (50 mM Hepes, 0.01% Brij-35, 10 mM MgCl2, 0.5 mM EGTA, 1% Glycerol, and 1.2 mM DTT) is added to the plates on top of the compound and pre-incubated for 30 minutes at room temperature. Following the incubation, 5 μL of 5×Sox-chromophore (CSox) labeled peptide substrate (AQT0255, AssayQuant) & ATP diluted in assay buffer is added to the plate to initiate the reaction. The assay is incubated at room temperature for 45 min after initiation. The CSox peptide substrate is phosphorylated by CDK2/A2 upon ATP hydrolysis.
as §1

The target in data set [4] is T2, CDK9/CyclinT1. The data set can be described thus: CDK9/CyclinT1 ChEF Assay (Table A). Format: biochemical. The note with it: 10xKm, read-out: CDK9/CCNT1 ChEF 10xKm Ki: Average Ki. More on the design: Wild-type, full length CDK9 in complex with wildtype, full length CyclinT1: Invitrogen Cat #PV4131; purchased Invitrogen PV4131. The protocol:
500 nL of 50× compound in 100% DMSO is added to a 384-well low volume, white assay plate. 19.5 μL of 1.3×CDK9/CyclinT1 (Wild-type, full length CDK9 in complex with wildtype, full length CyclinT1: Invitrogen Cat #PV4131) diluted in assay buffer (50 mM Hepes, 0.01% Brij-35, 10 mM MgCl2, 0.5 mM EGTA, 1% Glycerol, and 1.2 mM DTT) is added to the plates on top of the compound and pre-incubated for 30 minutes at room temperature. Following the incubation, 5 μL of 5×Sox-chromophore (CSox) labeled peptide substrate (AQT0449, AssayQuant) & ATP diluted in assay buffer is added to the plate to initiate the reaction. The assay is incubated at room temperature for 120 min after initiation. The CSox peptide substrate is phosphorylated by CDK9/T1 upon ATP hydrolysis.
as §1
Target sequence in this assay (P50750 whole entry): as the sequence (P50750 whole entry) above
Target sequence in this assay (O60563 whole entry partner): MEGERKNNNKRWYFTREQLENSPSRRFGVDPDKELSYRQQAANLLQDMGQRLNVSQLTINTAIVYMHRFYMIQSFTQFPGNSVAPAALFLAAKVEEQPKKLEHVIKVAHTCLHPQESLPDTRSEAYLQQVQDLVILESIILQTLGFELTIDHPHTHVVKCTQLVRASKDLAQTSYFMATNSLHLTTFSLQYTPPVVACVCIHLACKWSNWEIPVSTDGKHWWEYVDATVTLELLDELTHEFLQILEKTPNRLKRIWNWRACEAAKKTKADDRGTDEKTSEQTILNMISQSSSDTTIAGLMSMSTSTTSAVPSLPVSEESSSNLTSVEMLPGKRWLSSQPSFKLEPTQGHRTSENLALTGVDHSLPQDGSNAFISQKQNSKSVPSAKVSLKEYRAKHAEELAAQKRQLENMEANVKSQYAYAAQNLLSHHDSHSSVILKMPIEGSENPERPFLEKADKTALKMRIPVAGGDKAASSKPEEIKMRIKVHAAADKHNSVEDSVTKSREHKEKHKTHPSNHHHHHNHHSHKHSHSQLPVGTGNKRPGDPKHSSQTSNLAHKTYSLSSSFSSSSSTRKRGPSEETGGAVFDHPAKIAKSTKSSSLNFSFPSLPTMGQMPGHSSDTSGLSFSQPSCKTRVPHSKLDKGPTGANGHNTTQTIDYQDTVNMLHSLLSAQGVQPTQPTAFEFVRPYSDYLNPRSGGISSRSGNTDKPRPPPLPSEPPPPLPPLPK

The target in data set [5] is T1, CDK1/CyclinB1. The experiment in a line: CDK1/Cyclin B1 Mobility Shift Assay (Caliper, Table B). Format: biochemical. The note with it: read-out: CDK1/CCNB1 Caliper Ki: Average Ki. The protocol:
10 nL of 2000× compound in 100% DMSO is added to a 384-well polypropylene assay plate. 15 μL of 1.3×CDK1/B1 and 1.3× fluorescent substrate (Wild-type, full length CDK1 in complex with wildtype, full length CyclinB1: Carna Cat #04-102 and FL-Peptide 29: PerkinElmer Cat #760429) diluted in kinase buffer (50 mM Hepes, 0.01% Brij-35, 10 mM MgCl2, 1 mM EGTA, 0.05% BSA, and 2 mM DTT) is added to the plates on top of the compound, mixed, and pre-incubated for 30 minutes at room temperature. The fluorescently labeled peptide substrate is phosphorylated by CDK1/B1 upon ATP hydrolysis. Following the incubation, 5 μL of 4×ATP diluted in kinase buffer is added to the plate to initiate the reaction. Following the 30-minute incubation, the reaction is stopped by adding 75 μL of stopping buffer containing 0.5 M EDTA.
as §2

Data set [6] concerns the target T3, CDK2/CyclinA2. The data set can be described thus: CDK2/Cyclin A2 Mobility Shift Assay (Caliper, Table B). Type of data set: biochemical. To be noted: for pKi: Caliper mobility shift, 10xKm, read-out: CDK2/CCNA2 Caliper 10xKm Ki: Average Ki. The protocol: 10 nL of 2000× compound in 100% DMSO is added to a 384-well polypropylene assay plate. 15 μL of 1.3×CDK2/A2 and 1.3× fluorescent substrate (Wild-type, full length CDK2 in complex with wildtype, full length CyclinA2: Carna Cat #04-103 and FL-Peptide 18: PerkinElmer Cat #760362) diluted in kinase buffer (50 mM Hepes, 0.01% Brij-35, 10 mM MgCl2, 1 mM EGTA, 0.05% BSA, and 2 mM DTT) is added to the plates on top of the compound, mixed, and pre-incubated for 30 minutes at room temperature. The fluorescently labeled peptide substrate is phosphorylated by CDK2/A2 upon ATP hydrolysis. Following the incubation, 5 μL of 4×ATP diluted in kinase buffer is added to the plate to initiate the reaction. Following the 30-minute incubation, the reaction is stopped by adding 75 μL of stopping buffer containing 0.5 M EDTA.
as §2, with “Ki through” for “Ki”, “substrate and Km^app” for “substrate, Kmapp”

The values that follow come from patent US20260200943A1, “COMPOUNDS FOR TREATING CANCER” (Genesis Therapeutics, Inc., priority 2022, published 2026).

pKi: −log10 of the molar value. Read-outs that look alike come from different tables or passages of the source.

T1 sequence (P06493 whole entry): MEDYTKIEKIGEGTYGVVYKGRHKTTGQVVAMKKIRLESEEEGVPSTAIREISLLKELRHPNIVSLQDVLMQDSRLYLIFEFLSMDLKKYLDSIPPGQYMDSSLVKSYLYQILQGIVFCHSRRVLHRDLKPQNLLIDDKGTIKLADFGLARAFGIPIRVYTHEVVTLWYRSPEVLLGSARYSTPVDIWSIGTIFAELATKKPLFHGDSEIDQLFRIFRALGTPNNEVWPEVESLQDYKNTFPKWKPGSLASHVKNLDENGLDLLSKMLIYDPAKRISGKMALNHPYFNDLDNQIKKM
T1 sequence (P14635 whole entry partner): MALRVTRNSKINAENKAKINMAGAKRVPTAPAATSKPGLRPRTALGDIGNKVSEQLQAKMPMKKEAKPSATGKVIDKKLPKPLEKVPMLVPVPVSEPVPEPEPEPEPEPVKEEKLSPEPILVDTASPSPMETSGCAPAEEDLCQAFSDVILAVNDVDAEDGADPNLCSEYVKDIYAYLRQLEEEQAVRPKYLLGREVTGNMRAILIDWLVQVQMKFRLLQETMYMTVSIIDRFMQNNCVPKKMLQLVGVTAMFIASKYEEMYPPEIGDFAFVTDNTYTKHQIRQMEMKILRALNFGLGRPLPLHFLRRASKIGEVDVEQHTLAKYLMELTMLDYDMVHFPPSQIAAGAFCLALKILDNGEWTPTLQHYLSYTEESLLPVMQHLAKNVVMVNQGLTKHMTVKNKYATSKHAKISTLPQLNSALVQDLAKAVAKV

Under “from CC(C)(C)OC(=O)NCCCCCCNS(=O)(=O)C1CCC(Nc2cc([C@H]3CC[C@@H](OC(=O)Oc4ccc([N+](=O)[O-])cc4)C3)n(C(C)(C)C)n2)CC1, other bond, DIPEA, DCE, 4.26 mM, 25.0 °C, 18.0 h, 2 steps”, `CC(C)(C)n1nc2cc1[C@H]1CC[C@H](C1)OC(=O)NCCCCCCNS(=O)(=O)C1CCC(CC1)N2` yielded a ring closure, yield of all isomers of 50%.
`CC(C)(C)n1nc2cc1[C@H]1CC[C@H](C1)OC(=O)NCCOCCNS(=O)(=O)c1ccc(c(F)c1)N2` showed a ring closure, yield of all isomers (from CC(C)(C)OC(=O)NCCOCCNS(=O)(=O)c1ccc(Nc2cc([C@H]3CC[C@@H](OC(=O)Oc4ccc([N+](=O)[O-])cc4)C3)n(C(C)(C)C)n2)c(F)c1, other bond, DIPEA, DCE, 5.25 mM, 25.0 °C, 18.0 h, 2 steps) of 62.3%.
Under “from Cn1ncc(S(=O)(=O)N2CCC(N)CC2)c1C(=O)NCCCCCOc1nc(Cl)ncc1Br, snar bond, K2CO3, DMSO, 6.02 mM, 110.0 °C, 2.0 h”, `Cn1ncc2c1C(=O)NCCCCCOc1nc(ncc1Br)NC1CCN(CC1)S2(=O)=O` returned a ring closure, yield of all isomers of 33%.
`NS(=O)(=O)c1ccc2cc1NCCCCCNC(=O)OC1CCC(C1)c1cnc(nc1)N2` (centres unmarked) registered a ring closure, yield of all isomers (from CC(C)(C)OC(=O)NCCCCCNc1cc(Nc2ncc(C3CCC(OC(=O)Oc4ccc([N+](=O)[O-])cc4)C3)cn2)ccc1S(=O)(=O)NC(=O)OC(C)(C)C, other bond, DIEA, DMF, 75.0 mM, 50.0 °C, 3.0 h, 2 steps) of 39.5%.
Under “from NCCCCCOc1cc(Nc2ncc(C3CCC(OC(=O)Oc4ccc([N+](=O)[O-])cc4)C3)cn2)ccc1S(N)(=O)=O, other bond, DIEA, DMF, 41.5 mM, 50.0 °C, 2.0 h”, `NS(=O)(=O)c1ccc2cc1OCCCCCNC(=O)OC1CCC(C1)c1cnc(nc1)N2` (centres unmarked) had a ring closure, yield of all isomers of 11.1%.
Regarding `O=C1NCCCCn2cc(cn2)S(=O)(=O)N2CCC(CC2)Nc2cc([nH]n2)[C@H]2CC[C@H](C2)O1` [Compound 94, (11S,13R,24Z,64E)-21H,61H-13-oxa-5-thia-3,11-diaza-4(4,1)-piperidina-2(5,3),6(4,1)-dipyrazola-1(1,3)-cyclopentanacyclotridecaphan-12-one 5,5-dioxide], the pKi was not above 7.00 in data set [1]; 7.00 to 7.60 in data set [2]; 7.00 to 7.60 in data set [3] (10xKm, read-out: CDK2/CCNA2 ChEF 10xKm Ki: Average Ki); 7.60 to 9.00 in data set [4]. Also, in data set [3] (selectivity over CDK9/T1), the “CDK2/CCNA2 ChEF 10xKm Ki: CDK2/A2 Selectivity over CDK9/T1” value was “A (A>10)”.
Regarding `O=C1NCCCCCCCOc2cccc(n2)Nc2ncc(cn2)[C@@H]2CC[C@@H](C2)O1` [Compound 111], in data set [5], the pKi is not above 7.00. Also, in data set [2], the pKi is not above 7.00. In data set [6], the pKi is 7.00 to 7.60, the “CDK2/CCNA2 Caliper 10xKm Ki: CDK2/A2 Selectivity over CDK1/B1” value is listed as “C (C<5)” and the “CDK2/CCNA2 Caliper 10xKm Ki: CDK2/A2 Selectivity over CDK9” value is given as “B (5≤B<10)”.
In the case of `O=C1NCCCCCCOc2cccc(n2)Nc2ncc(cn2)[C@@H]2CC[C@@H](C2)O1` [Compound 112], the pKi is not above 7.00 in data set [5], not above 7.00 in data set [2] and 7.00 to 7.60 in data set [6]. Besides, in data set [6], the “CDK2/CCNA2 Caliper 10xKm Ki: CDK2/A2 Selectivity over CDK1/B1” value is on record as “B (5≤B<10)”. Besides, the “CDK2/CCNA2 Caliper 10xKm Ki: CDK2/A2 Selectivity over CDK9” value in data set [6] is given as “B (5≤B<10)”.
With `O=C1NCCCCCOc2cccc(n2)Nc2ncc(cn2)[C@@H]2CC[C@@H](C2)O1` [Compound 113], the pKi in data set [5] is not above 7.00. For the same molecule, in data set [6], the pKi was not above 7.00, the “CDK2/CCNA2 Caliper 10xKm Ki: CDK2/A2 Selectivity over CDK1/B1” value is given as “B (5≤B<10)” and the “CDK2/CCNA2 Caliper 10xKm Ki: CDK2/A2 Selectivity over CDK9” value is “B (5≤B<10)”.
Regarding `O=C1NCCCCOc2cccc(n2)Nc2ncc(cn2)[C@@H]2CC[C@@H](C2)O1` [Compound 114], the pKi in data set [5] was not above 7.00. Also, in data set [6], the pKi was 7.00 to 7.60, the “CDK2/CCNA2 Caliper 10xKm Ki: CDK2/A2 Selectivity over CDK1/B1” value is given as “B (5≤B<10)” and the “CDK2/CCNA2 Caliper 10xKm Ki: CDK2/A2 Selectivity over CDK9” value is listed as “B (5≤B<10)”.
With `O=C1NCCCCCCNS(=O)(=O)c2ccc(cc2)Nc2ncc(cn2)[C@@H]2CC[C@@H](C2)O1` [Compound 115], the pKi in data set [5] is not above 7.00. For the same molecule, in data set [6], the pKi is not above 7.00, the “CDK2/CCNA2 Caliper 10xKm Ki: CDK2/A2 Selectivity over CDK1/B1” value is reported as “B (5≤B<10)” and the “CDK2/CCNA2 Caliper 10xKm Ki: CDK2/A2 Selectivity over CDK9” value is “C (C<5)”.
